According to patent US7482479B2, “Production of cis-pellitorin and use as a flavouring” (Symrise GmbH & Co., KG, priority 2002, dated 2009):

Experiments:
[1] = tested on: mouse; settings: cited from earlier work
[2] = frequent use and overdosing; cited from earlier work
[3] = Tasting of the substance in 11% sugar solution by a group of testers (sensory profile); format: in vivo; settings: for sensory profile (tasting): approx. 5 ml swallowed, 6 to 8 testers; for flavour impression in sensory testing: concentration not given
Method: The substance to be tasted is dissolved in ethanol and the ethanolic solution then diluted with an 11% sugar solution (final concentration: c). Approx. 5 ml of the sugar solution at a time are swallowed for the tasting. If the threshold value of the substance is known, a value just above the threshold value is chosen for the tasting. A group of 6 to 8 testers tasted the solutions.

[4] = capsaicin as reference; cited from earlier work

SMILES | sensory profile (tasting) ([3]; c=10 ppm in 11% sugar solution) | flavour impression in sensory testing [3] | also measured
COc1cc(CNC(=O)CCCC/C=C/C(C)C)ccc1O [capsaicin, N-(4-hydroxy-3-methoxybenzyl)-8-methyl-(6E)-nonenoic acid amide] | – | – | LD50 (mouse oral) [1]: 47 mg; chronic toxicity [2]: chronic gastritis, kidney and liver damage
CCCCC/C=C\C=C\C(=O)NCC(C)C [cis-pellitorine, 2E,4Z-decadienoic acid-N-isobutylamide] | pronounced feeling of warmth, immediately pungent, typical alcohol pungency | pleasant, extremely pungent and warm flavour impression, which is reminiscent of ethanol and is relatively long lasting | –
COc1cc(CNC(=O)CCCCCCC(C)C)ccc1O [dihydrocapsaicin] | – | – | sensory profile (tasting) ([3]; c=100 ppb in 11% sugar solution): slightly delayed onset of effect in the pharynx, burning, aggressive, no heat development
O=C(/C=C/C=C/c1ccc2c(c1)OCO2)N1CCCCC1 [piperine, 1-piperoyl piperidine] | – | – | relative pungency in comparison to capsaicin [4]: approx. 1%
CCCCC/C=C/C=C/C(=O)NCC(C)C [trans-pellitorine, 2E,4E-decadienoic acid-N-isobutylamide] | saliva-stimulating, oily, fruity, slightly tingling, not pungent | primarily numbing | –
